Assays:
[1] = Hydroxyapatite-targeting ability (binding to bone mineral); conditions: 80 mg hydroxyapatite, 37°C, within 4 h
Method: The precipitates were dissolved with 10 ml of methanol prior to 5 min of sonication and 10 min of centrifugation at 12,000 rpm. Filtration of the supernatant was accomplished with a filtering membrane (0.22 μm). The concentration of AS in the supernatant was detected by HPLC. The adsorption ability of bone targets was calculated by the following equation ([Yuan et al., 2020]): A%=Ia/I0×100% (5) where A% represents the adsorption ability of bone targets. The Ia denotes the amount of AS absorbed by hydroxyapatite. The I0 denotes the weight of AS in initial bone targets.

[2] = Pharmacokinetic parameters in the plasma; assay type: in vivo; conditions: SD rats, 10 mg/kg, tail vein, n = 6
Method: In-house in vitro analysis of AS was performed with a Shimadzu high performance liquid chromatography (HPLC) machine ([…], Shimadzu-Japan) equipped with an ultraviolet detector and a Purospher® RP18 column (5 μm, 4.6 × 250 mm, Merck KGaA-Germany). […] For in vivo detection, the internal standard (IS) was a baicalein (20 μg/ml) solution, wherein ethyl acetate was employed to extract AS and IS from plasma ([Zhen et al., 2020]). […] Sampling of blood from the retro-orbital veins of rats at preset time intervals was performed after they had received the aforementioned dosage forms. To obtain serum, we stored the sampled blood for 30 min at 37°C prior to centrifugation at 3,700 rpm for 10 min. The following procedure has been depicted in Section 2.7. Based on observed values, we computed Cmax as the maximum AS concentration in plasma and Tmax as the time to attain Cmax. […] Estimation of oral relative biological availability (RBA) was carried out as follows ([Zhu et al., 2021]): […]

ovariectomized rats = experiment: Osteoporotic study in ovariectomized rats (femur micro-CT, BMD); assay type: in vivo, SD rats; conditions: 0.5 mg/kg/2 days intravenous; for BMD (bone mineral density) / BV/TV / SMI (structure model index) / Tb.N / Tb.Sp / Tb.Th: femur of ovariectomized rats, n = 3; for increase of femur BMD compared to the OVX group: ovariectomized rats, treatment for 8 weeks
Method: Female SD rats were adopted for the osteoporotic study. […] All SD rats were anesthetized and bilaterally ovariectomized except those in the SHAM group, which underwent a sham operation. […] All SD rats were sacrificed, and their left femurs were collected. Detection of BMD was performed with a dual energy X-ray absorptiometric machine ([…] Microtomograph, Bruker, Belgium) ([Zhang et al., 2020]).

[3] = AS release in vitro, dialysis bag method; assay type: physicochemical; conditions: in 48 h, PBS pH 7.4 with 0.5% Tween 80, 37 °C
Method: The experiment was conducted with an oscillating machine (ZRS-8G model, Tianjin Univ. Radio Factory, China) at a speed of 100 rpm and 37 °C. Withdrawal of dissolution medium for analysis was accordingly performed, while the same volume of fresh medium was added at preset time periods. Measurement of AS concentration for the calculation of the cumulative release ratio with HPLC was carried out. The release curve was drawn with the abscissa as time and the cumulative release ratio as the ordinate ([Weng et al., 2019]).

| SMILES | adsorption ability to hydroxyapatite (A%) ([1]; containing 1 mg AS) [%] | adsorption ability to hydroxyapatite (A%) ([1]; containing 5 mg AS) [%] | AUCt [2] [ng·h/mL] | Cmax [2] [ng/mL] | MRT [2] [min] | Tmax [2] [min] | t1/2 [2] [min] | effect on osteoporosis in ovariectomized rats vs OVX group (ovariectomized rats; p < 0.05) | BMD (bone mineral density) (ovariectomized rats) | BV/TV (ovariectomized rats) [%] | SMI (structure model index) (ovariectomized rats) | Tb.N (ovariectomized rats) | Tb.Sp (ovariectomized rats) | Tb.Th (ovariectomized rats) [mm] | increase of femur BMD compared to the OVX group (ovariectomized rats) [%] | cumulative release rate [3] [%] |
| --- | --- | --- | --- | --- | --- | --- | --- | --- | --- | --- | --- | --- | --- | --- | --- | --- |
| CC(C)(O)[C@@H]1CC[C@](C)([C@H]2[C@@H](O)C[C@@]3(C)[C@@H]4C[C@H](O[C@@H]5O[C@H](CO)[C@@H](O)[C@H](O)[C@H]5O)[C@H]5C(C)(C)[C@@H](O[C@@H]6OC[C@@H](O)[C@H](O)[C@H]6O)CC[C@@]56C[C@@]46CC[C@]23C)O1 [AS, Astragaloside IV] | 26.98 | 28.83 | 12912 | 14320 | 82.14 | 4.98 | 33.5 | certain mitigative effect | 0.064 ± 0.003 | 9.951 ± 0.100 | 1.847 ± 0.032 | 1.441 ± 0.026 | 0.60 ± 0.018 | 0.076 ± 0.002 | 12.9 | 79.05 |
| C[C@]12CC[C@@H]3c4ccc(O)cc4CC[C@H]3[C@@H]1CC[C@@H]2O [ES, estradiol] | – | – | – | – | – | – | – | – | 0.093 ± 0.003 | 12.91 ± 0.703 | 1.793 ± 0.052 | 1.943 ± 0.063 | 0.48 ± 0.016 | 0.074 ± 0.002 | 62.5 | – |

Reference: paper PMC9515468, “Tetracycline-grafted mPEG-PLGA micelles for bone-targeting and osteoporotic improvement” (Frontiers in Pharmacology, 2022)
